Results published in patent US20240294498A1, “FACTOR XIIA INHIBITORS” (Lunac Therapeutics Ltd, priority 2021, published 2024).

Legend:
Type in all cases: biochemical
[1] = molecular target: T1, thrombin (Homo sapiens, UniProt P00734); assay: Determination of selectivity: thrombin inhibition (chromogenic substrate GPR); settings: fold selectivity for FXIIa over thrombin (human); category
T1 construct: FXa (5 nM) and thrombin (5 nM)
Experimental: (§1) The activities of the compounds of the invention have been determined in vitro using the following assays protocols for the screening of activity of FXIIa and other proteases. Each of these assays were performed in a purified system employing the use of chromogenic assays in microplate plate wells. Chromogenic peptide substrates mimicking natural protein substrates are attached via an amide bond to a chromogenic group. Paranitroaniline (pNA) is released from the peptide following catalyses by the proteolytic enzyme; the absorbance increases and can be monitored at 405 nm.
(§2) All compounds were dissolved in 100% (v/v) DMSO to a stock concentration of 10 mM, the highest concentration of compound used in each assay is 500 μM. The final concentrations of DMSO were 5% (v/v) in 50 mM Tris 137 mM NaCl pH 7.4. Where no test compound was added a final concentration of 5% DMSO was employed.
(§3) To determine selectivity of test compounds, these test compounds were assayed for inhibitory activity against other serine proteases including FXa and thrombin. Essentially compounds at increasing concentrations were incubated with each enzyme: FXa (5 nM) and thrombin (5 nM), for 10 mins at 37° C. followed by the appropriate chromogenic substrate, S2765 (Chromogenix) and GPR (Bachem) respectively in 50 mM Tris, 137 mM NaCl, pH 7.4. Substrates were used at a concentration equal to the appropriate experimentally derived KM. Kinetic readings at 405 nm were monitored every 12 secs for a total duration of 3 hours at 37° C. Gradients of initial rates were determined and employed to calculate IC50 values. Values of IC50 were converted to Ki values based on the formula:
(§4) Ki═IC50/(1+[Substrate]/Km)
(§5) Where [Substrate] denotes the concentration of substrate used in the assay and Km is the determined value of each enzyme with its own substrate.
The fold selectivity for FXIIa over thrombin for the compounds of the invention has been categorised based on the fold selectivity values, the categories being “+”, “++” and “+++”. The category “+” refers to fold selectivity values less than 10 (e.g. a fold selectivity value of less than 10 and greater than 1). The category “++” refers to a fold selectivity value of 10 to 100. The category “+++” refers to fold selectivity values greater than 100.

[2] = molecular target: FXa (Homo sapiens, UniProt P00742); assay: Determination of selectivity: FXa inhibition (chromogenic substrate S2765); settings: fold selectivity for FXIIa over FXa (human); category
Experimental: as §1, §2, §3, §4, §5
The fold selectivity for FXIIa over FXa for the compounds of the invention has been categorised based on the fold selectivity values, the categories being “o”, “oo” and “ooo”. The category “o” refers to fold selectivity values less than 10 (e.g. a fold selectivity value of less than 10 and greater than 1). The category “oo” refers to a fold selectivity value of 10 to 100. The category “ooo” refers to fold selectivity values greater than 100.

[3] = molecular target: T2, FXIIa (Homo sapiens, UniProt P00748); assay: Determination of Factor XIIa inhibition (chromogenic substrate S-2302); settings: human FXIIa alpha, Ki category
T2 construct: FXIIa alpha
T2 sequence (P00748 373-615 limits assumed): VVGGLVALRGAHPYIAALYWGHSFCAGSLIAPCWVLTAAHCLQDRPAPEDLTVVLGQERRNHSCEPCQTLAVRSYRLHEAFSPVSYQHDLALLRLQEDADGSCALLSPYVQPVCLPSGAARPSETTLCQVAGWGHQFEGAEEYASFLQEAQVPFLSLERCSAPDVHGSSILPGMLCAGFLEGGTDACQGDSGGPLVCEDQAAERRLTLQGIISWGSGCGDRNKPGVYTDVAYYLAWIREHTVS
T2 sequence (P00748 20-372 partner limits assumed): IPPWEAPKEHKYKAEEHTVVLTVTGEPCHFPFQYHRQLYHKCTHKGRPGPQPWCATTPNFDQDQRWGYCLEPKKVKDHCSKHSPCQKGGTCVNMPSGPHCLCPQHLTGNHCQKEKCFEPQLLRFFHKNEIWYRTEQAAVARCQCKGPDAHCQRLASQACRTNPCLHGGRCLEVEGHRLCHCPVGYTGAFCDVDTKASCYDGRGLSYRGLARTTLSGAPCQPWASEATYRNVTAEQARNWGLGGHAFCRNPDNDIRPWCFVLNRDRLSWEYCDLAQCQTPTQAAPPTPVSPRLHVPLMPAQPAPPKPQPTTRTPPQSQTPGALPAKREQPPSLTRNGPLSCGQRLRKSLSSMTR
Experimental: as §1, §2
Factor XIIa activity was measured using a chromogenic substrate S-2302 (Chromogenix). Various concentrations of compound were incubated with 10 nM of FXIIa and incubated at 37° C. for 10 minutes in 50 mM Tris, 137 mM NaCl, pH 7.4, prior to the addition of the chromogenic substrate S-2302 at a concentration equal the to the experimentally derived KM. Kinetic readings at 405 nm were monitored every 12 secs for a total duration of 3 hours at 37° C. Gradients of initial rates were determined and employed to calculate IC50 values.
The activity of the compounds of the invention has been categorised based on the Ki values, the categories being “†”, “*”, “**” and “***”. […] The category “**” refers to compounds with a Ki value of 0.2 μM to 0.8 μM.
as §4, §5

FXa, sequence (P00742 235-488 limits assumed): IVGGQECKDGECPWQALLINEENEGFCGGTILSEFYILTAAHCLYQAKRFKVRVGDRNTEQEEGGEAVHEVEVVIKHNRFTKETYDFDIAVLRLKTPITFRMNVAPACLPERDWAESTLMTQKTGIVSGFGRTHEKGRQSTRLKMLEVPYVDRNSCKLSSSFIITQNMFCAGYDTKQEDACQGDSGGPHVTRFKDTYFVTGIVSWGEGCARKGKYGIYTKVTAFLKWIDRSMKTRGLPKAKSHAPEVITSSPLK
FXa, sequence (P00742 41-179 partner limits assumed): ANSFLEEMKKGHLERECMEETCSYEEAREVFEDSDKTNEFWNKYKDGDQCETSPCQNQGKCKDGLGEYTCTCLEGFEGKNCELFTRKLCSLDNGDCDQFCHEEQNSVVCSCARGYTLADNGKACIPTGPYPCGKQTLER

Row | Structure (SMILES) | Thrombin (human)/FXIIa alpha (human) [1] | FXa (human)/FXIIa alpha (human) [2] | Ki [3] [nM]
1 | COc1ccc(C[C@@H]2C[C@@H](C(=O)NCc3cc4cnccc4[nH]3)N(C(=O)[C@@H]3NCCC[C@@H]3C(=O)N3CCCC3)C2)cc1 [Example M00466, (2S,4R)-N-((1H-pyrrolo[3,2-c]pyridin-2-yl)methyl)-4-(4-mthoxybenzyl)-1-((2R,3S)-3-(pyrrolidine-1-carbonyl)piperidine-2-carbonyl)pyrrolidine-2-carboxamide] | +++ (fold selectivity values greater than 100) | ∘∘∘ | < 200
2 | Cc1ccc(C[C@@H]2C[C@@H](C(=O)NCC3CCn4c(C)nnc4C3)N(C(=O)[C@@H]3NCCC[C@@H]3C(=O)N3CCCC3)C2)cc1 (stereo partly drawn) [Example M05913, (2S,4R)-N-[(3-mthyl-5,6,7,8-tetrahydro-[1,2,4]triazolo[4,3-a]pyidin-7-yl)methyl]-4-(p-tolylmethyl)-1-[(2R,3S)-3-(pyrrolidine-1-carbonyl)piperidine-2-carbonyl]pyrrolidine-2-carboxamide] | +++ (fold selectivity values greater than 100) | ∘∘∘ | 200 to 800
3 | Cc1ccc2c(c1)CCN2C1C[C@@H](C(=O)NCc2ccc3c(cnn3C)c2)N(C(=O)[C@@H]2NCCC[C@@H]2C(=O)N2CCCC2)C1 (single isomer, unassigned) [Example M05838] | +++ (fold selectivity values greater than 100) | ∘∘∘ | 200 to 800
4 | Cc1ccc(C[C@@H]2C[C@@H](C(=O)NCc3ccc4c(cnn4C)c3)N(C(=O)[C@@H]3NCCC[C@@H]3C(=O)N(C)CCN(C)CCF)C2)cc1 [Example M06131, (2R,3S)-N-(2-((2-fluoroethyl)(methyl)amino)ethyl)-N-methyl-2-((2S,4R)-2-(((1-methyl-1H-indazol-5-yl)methyl)carbamoyl)-4-(4-methylbenzyl)pyrrolidine-1-carbonyl)piperidine-3-carboxamide] | +++ (fold selectivity values greater than 100) | ∘∘∘ | < 200
5 | Cc1ccc(C=C2C[C@@H](C(=O)NCc3ccc4c(cnn4C)c3)N(C(=O)[C@@H]3NCCC[C@@H]3C(=O)N3CCCC3)C2)cc1 (single isomer, unassigned) [Example M05843] | +++ (fold selectivity values greater than 100) | ∘∘∘ | 200 to 800
6 | CCCc1ccc(C[C@@H]2C[C@@H](C(=O)NCc3ccc4c(c3)nnn4C)N(C(=O)[C@@H]3NCCC[C@@H]3C(=O)N3CCCC3)C2)cc1 [Example M05935] | +++ (fold selectivity values greater than 100) | ∘∘∘ | 200 to 800
7 | Cc1ccc(C[C@@H]2C[C@@H](C(=O)NCc3ccc4c(cnn4C)c3)N(C(=O)[C@@H]3NCCC[C@@H]3C(=O)N(C)C3CCN(C)C3)C2)cc1 (stereo partly drawn) [Example M06033, (2R,3S)-N-methyl-2-((2S,4R)-2-(((1-methyl-1H-indazol-5-yl)methyl)carbmoyl)-4-(4-methylbenzyl)pyrrolidine-1-carbonyl)-N-(1-methylpyrrolidin-3-yl)piperidine-3-carboxamide] | +++ (fold selectivity values greater than 100) | ∘∘∘ | < 200
8 | Cc1ccc(C[C@@H]2C[C@@H](C(=O)NCc3ccc4c(cnn4C)c3)N(C(=O)[C@@H]3NCCC[C@@H]3C(=O)N3CCCC34CC4)C2)cc1 [Example M05773] | ++ (a fold selectivity value of 10 to 100) | ∘∘∘ | 200 to 800
9 | Cc1ccc(C[C@@H]2C[C@@H](C(=O)NCc3ccc4c(c3)c(F)nn4C)N(C(=O)[C@@H]3NCCC[C@@H]3C(=O)N3CCCC3)C2)cc1 [Example M05806, (2S,4R)-N-((3-fluoro-1-methyl-1H-indazol-5-yl)methyl)-4-(4-methylbenzyl)-1-((2R,3S)-3-(pyrrolidine-1-carbonyl)piperidine-2-carbonyl)pyrrolidine-2-carboxamide] | +++ (fold selectivity values greater than 100) | ∘∘∘ | < 200
10 | COc1nn(C)c2ccc(CNC(=O)[C@@H]3C[C@@H](Cc4ccc(C)cc4)CN3C(=O)[C@@H]3NCCC[C@@H]3C(=O)N3CCCC3)cc12 [Example M05810, (2S,4R)-N-((3-methoxy-1-methyl-1H-indazol-5-yl)methyl)-4-(4-methylbenzyl)-1-((2R,3S)-3-(pyrrolidine-1-carbonyl)piperidine-2-carbonyl)pyrrolidine-2-carboxamide] | ++ (a fold selectivity value of 10 to 100) | ∘∘ | 800 to 5000
11 | Cc1ccc(C[C@@H]2C[C@@H](C(=O)NCC3CCc4c(cnn4C)C3)N(C(=O)[C@@H]3NCCC[C@@H]3C(=O)N3CCCC3)C2)cc1 (stereo partly drawn) [Example M05874, (2S,4R)-N-((1-methyl-4,5,6,7-tetrahydro-1H-indazol-5-yl)methyl)-4-(4-methylbenzyl)-1-((2R,3S)-3-(pyrrolidine-1-carbonyl)piperidine-2-carbonyl)pyrrolidine-2-carboxamide] | +++ (fold selectivity values greater than 100) | ∘∘∘ | 200 to 800
12 | Cc1ccc(C[C@@H]2C[C@@H](C(=O)NCc3ccc4c(cnn4C)c3)N(C(=O)[C@H]3[C@@H](C(=O)N4CCCC4)CCCN3C)C2)cc1 [Example M05757, (2S,4R)—N-[(1-methylindazol-5-yl)methyl]-1-[(2R,3S)-1-methyl-3-(pyrrolidine-1-carbonyl)piperidine-2-carbonyl]-4-(p-tolylmethyl)pyrrolidine-2-carboxamide] | +++ (fold selectivity values greater than 100) | ∘∘∘ | < 200
13 | Cn1nnc2cc(CNC(=O)[C@@H]3C[C@@H](Cc4ccc5ccccc5c4)CN3C(=O)[C@@H]3NCCC[C@@H]3C(=O)N3CCCC3)ccc21 [Example M05881, (2S,4R)-N-((1-methyl-1H-benzo[d][1,2,3]triazol-5-yl)methyl)-4-(naphthalen-2-ylmethyl)-1-((2R,3S)-3-(pyrrolidine-1-carbonyl)piperidine-2-carbonyl)pyrrolidine-2-carboxamide] | +++ (fold selectivity values greater than 100) | ∘∘∘ | < 200
